Drawing on patent US7786129B2, “Piperazine derivatives of dialkyl oxindoles” (Egis Gyogyszergyar Nyrt, priority 2004, dated 2010), this text covers melting point for 35 compounds.

SMILES strings stand for the structures. Where a name gives a salt, the structure may show the parent alone.

What is called melting point is the temperature of the solid-liquid transition.

On to `CCC1(CCCCN2CCN(c3ccc(Cl)cc3)CC2)C(=O)Nc2ccc(C)cc21` (centres unmarked) [Example 73, 3-{4-[4-(4-Chlorophenyl)-piperazin-1-yl]-butyl}-3-ethyl-5-methyl-1,3-dihydro-2H-indol-2-one], for which the melting point was 175 to 177 °C. As for `CCC1(CCCCN2CCN(c3ccccn3)CC2)C(=O)Nc2ccc(C)cc21` (centres unmarked) [Example 80, 3-Ethyl-5-methyl-3-[4-(4-pyridin-2-yl-piperazin-1-yl)-butyl]-1,3-dihydro-2H-indol-2-one], the melting point is 168 to 170 °C. Compound `CC1(CCCCN2CCN(c3ccc(Cl)cc3)CC2)C(=O)Nc2c(Cl)cc(Cl)cc21` (centres unmarked) [Example 128, 5,7-dichloro-3-{4-[4-(4-chlorophenyl)-piperazin-1-yl]-butyl}-3-methyl-1,3-dihydro-2H-indol-2-one] yielded a melting point of 168 to 170 °C. The compound `CCC1(CCCCN2CCN(c3ccccn3)CC2)C(=O)Nc2ccc(Cl)cc21` (centres unmarked) [Example 66, 5-Chloro-3-ethyl-3-[4-(4-pyridin-2-yl-piperazin-1-yl)-butyl]-1,3-dihydro-2H-indol-2-one] returned a melting point of 154 to 156 °C.

Consider `CCC1(CCCCN2CCN(c3ccc(Cl)c(Cl)c3)CC2)C(=O)Nc2ccc(F)cc21` (centres unmarked) [Example 115, 3-{4-[4-(3,4-dichlorophenyl)-piperazin-1-yl]-butyl}-3-ethyl-5-fluoro-1,3-dihydro-2H-indol-2-one], for which the melting point lay in the range of 152 to 155 °C. Regarding `CCC1(CCCCN2CCN(c3cccc(Cl)c3)CC2)C(=O)Nc2cc(F)ccc21` (centres unmarked) [Example 77, 3-{4-[4-(3-Chlorophenyl)-piperazin-1-yl]-butyl}-3-ethyl-6-fluoro-1,3-dihydro-2H-indol-2-one], the melting point was in the range of 116 to 117 °C. For `CCC1(CCCCCCN2CCN(c3cccc(Cl)c3)CC2)C(=O)Nc2ccccc21.Cl` (centres unmarked) the value was 124 to 127 °C; for `CCC1(CCCCN2CCN(c3ccccn3)CC2)C(=O)Nc2ccc(F)cc21` (centres unmarked) [Example 84, 3-Ethyl-5-fluoro-3-[4-(4-pyridin-2-yl-piperazin-1-yl)-butyl]-1,3-dihydro-2H-indol-2-one], 144 to 147 °C; for `CCC1(CCCCN2CCN(c3ccc(C)c(Cl)c3)CC2)C(=O)Nc2ccccc21` (centres unmarked) [Example 99, 3-{4-[4-(3-Chloro-4-methylphenyl)-piperazin-1-yl]-butyl}-3-ethyl-1,3-dihydro-2H-indol-2-one], 103 to 106 °C. For `CCC1(CCCCN2CCN(c3ccc(Cl)c(Cl)c3)CC2)C(=O)Nc2c(Cl)cc(Cl)cc21` (centres unmarked) [Example 124, 5,7-dichloro-3-{4-[4-(3,4-dichlorophenyl)-piperazin-1-yl]-butyl}-3-ethyl-1,3-dihydro-2H-indol-2-one] the value was 164 to 165 °C; for `CCC1(CCCCN2CCN(c3cccc(Cl)c3)CC2)C(=O)Nc2ccc(Br)cc21` (centres unmarked) (as salt: oxalate) [Example 61, 5-Bromo-3-{4-[4-(3-chlorophenyl)-piperazin-1-yl]-butyl}-3-ethyl-1,3-dihydro-2H-indol-2-one monooxalate], 200 to 202 °C; for `CCC1(CCCN2CCN(c3cccc(Cl)c3)CC2)C(=O)Nc2ccccc21` (centres unmarked) [Example 108, 3-{3-[4-(3-Chlorophenyl)-piperazin-1-yl]-propyl}-3-ethyl-1,3-dihydro-2H-indol-2-one], 119 to 120 °C. For `CCC1(CCCCN2CCN(c3ccc(Cl)cc3)CC2)C(=O)Nc2ccc(Cl)cc21` (centres unmarked) [Example 121, 5-chloro-3-{4-[4-(4-chlorophenyl)-piperazin-1-yl]-butyl}-3-ethyl-1,3-dihydro-indol-2-one] the value was 186 to 188 °C; for `CCC1(CCCCN2CCN(c3cccc(Cl)c3)CC2)C(=O)Nc2ccc(S(N)(=O)=O)cc21` (centres unmarked) (as salt: oxalate) [Example 72, 3-{4-[4-(3-Chlorophenyl)-piperazin-1-yl]-butyl}-3-ethyl-1,3-dihydro-2H-indol-2-one 5-sulfonamide monooxalate], 188 to 190 °C.

`CCC1(CCCCN2CCN(c3ccccc3)CC2)C(=O)Nc2ccccc21` (centres unmarked) (as salt: oxalate) [Example 68, 3-[4-(4-Phenylpiperazin-1-yl)-butyl]-3-ethyl-1,3-dihydro-2H-indol-2-one monooxalate]: the melting point lay in the range of 121 to 123 °C. For `CCC1(CCCCN2CCN(c3cccc(OC)c3)CC2)C(=O)Nc2ccccc21` (centres unmarked) [Example 91, 3-Ethyl-3-{4-[4-(3-methoxyphenyl)-piperazin-1-yl]-butyl}-1,3-dihydro-2H-indol-2-one] the value was 123 to 125 °C; for `CCC1(CCCCN2CCN(c3ccc(F)cc3)CC2)C(=O)Nc2ccc(F)cc21` (centres unmarked) [Example 111, 3-Ethyl-5-fluoro-3-{4-[4-(4-fluorophenyl)-piperazine-1-yl]-butyl}-1,3-dihydro-2H-indol-2-one], 119 to 122 °C; for `CCC1(CCCCN2CCN(c3cccc(Cl)c3)CC2)C(=O)Nc2ccc(F)cc21` (centres unmarked) (as salt: hydrochloride) [Example 85, 3-{4-[4-(3-Chlorophenyl)-piperazin-1-yl]-butyl}-3-ethyl-5-fluoro-1,3-dihydro-2H-indol-2-one mono-hydrochloride], 121 to 124 °C. The result for `CCC1(CCCCN2CCN(c3ccc(Cl)cc3)CC2)C(=O)Nc2cc(F)c(Cl)cc21` (centres unmarked) [Example 122, 5-chloro-3-{4-[4-(4-chlorophenyl)-piperazin-1-yl]-butyl}-3-ethyl-6-fluoro-1,3-dihydro-2H-indol-2-one] reads 194 to 197 °C. For `CCC1(CCCCN2CCN(c3ccc(F)cc3Cl)CC2)C(=O)Nc2ccccc21` (centres unmarked) [Example 126, 3-{4-[4-(2-chloro-4-fluorophenyl)-piperazin-1-yl]-butyl}-3-ethyl-1,3-dihydro-2H-indol-2-one] the value was 125 to 126 °C; for `CCC1(CCCCN2CCN(c3cccc(Cl)c3)CC2)C(=O)Nc2ccccc21` (centres unmarked) (as salt: HCl) (hydrate or solvate) [Example 60, 3-{4-[4-(3-Chlorophenyl)-piperazin-1-yl]-butyl}-3-ethyl-1,3-dihydro-2H-indol-2-one-H2O—HCl-isopropanol (1:1:1:1)], 109 to 111 °C. Take `CCC1(CCCCCN2CCN(c3ccccn3)CC2)C(=O)Nc2ccccc21` (centres unmarked) [Example 93, 3-Ethyl-3-[5-(4-pyridin-2-yl-piperazin-1-yl)-pentyl]-1,3-dihydro-2H-indol-2-one]: the melting point is 127 to 128 °C. For `CCC1(CCCCN2CCN(c3cccc4c3OCCO4)CC2)C(=O)Nc2cc(F)ccc21` (centres unmarked) [Example 83, 3-{4-[4-(2,3-Dihydrobenzo[1,4]dioxin-5-yl)-piperazin-1-yl]-butyl}-3-ethyl-6-fluoro-1,3-dihydro-2H-indol-2-one] the value was 146 to 147 °C; for `CCC1(CCCCN2CCN(c3ccc(F)cc3)CC2)C(=O)Nc2ccc(C)cc21` (centres unmarked) [Example 113, 3-Ethyl-3-{4-[4-(4-fluorophenyl)-piperazin-1-yl]-butyl}-5-methyl-1,3-dihydro-2H-indol-2-one], 146 to 149 °C.

`CCC1(CCCN2CCN(c3ccccn3)CC2)C(=O)Nc2ccccc21` (centres unmarked) [Example 58, 3-Ethyl-3-[3-(4-pyridin-2-yl-piperazin-1-yl)-propyl]-1,3-dihydro-2H-indol-2-one]: the melting point was 122 to 124 °C.

In turn, `CCC1(CCCCCN2CCN(c3ccc(Cl)cc3)CC2)C(=O)Nc2ccccc21` (centres unmarked) [Example 123, 3-{5-[4-(4-chlorophenyl)-piperazin-1-yl]-pentyl}-3-ethyl-1,3-dihydro-2H-indol-2-one] had a melting point of 142 to 143 °C. The result for `CCC1(CCCCN2CCN(c3ccc(F)c(Cl)c3)CC2)C(=O)Nc2ccccc21` (centres unmarked) [Example 100, 3-{4-[4-(3-Chloro-4-fluorophenyl)-piperazin-1-yl]-butyl}-3-ethyl-1,3-dihydro-2H-indol-2-one] reads 121 to 124 °C.

In turn, `CCC1(CCCCN2CCN(c3ccc(F)cc3)CC2)C(=O)Nc2c(Cl)cc(F)cc21` (centres unmarked) [Example 119, 7-chloro-3-ethyl-5-fluoro-3-{4-[4-(4-fluorophenyl)-piperazin-1-yl]-butyl}-1,3-dihydro-2H-indol-2-one] returned a melting point of 161 to 162 °C. The result for `CCC1(CCCCCN2CCN(c3ccc(Cl)cc3)CC2)C(=O)Nc2c(Cl)cc(Cl)cc21` (centres unmarked) [Example 125, 5,7-Dichloro-3-{5-[4-(4-chlorophenyl)-piperazin-1-yl]-pentyl}-3-ethyl-1,3-dihydro-2H-indol-2-one] reads 145 to 148 °C. Compound `CCC1(CCCCN2CCN(c3cccc(Cl)c3)CC2)C(=O)Nc2ccc(Cl)cc21` (centres unmarked) [Example 67, 5-Chloro-3-{4-[4-(3-chlorophenyl)-piperazin-1-yl]-butyl}-3-ethyl-1,3-dihydro-2H-indol-2-one] had a melting point of 139 to 142 °C. In the case of `CCC1(CCCCN2CCN(c3ccc(Cl)c(C(F)(F)F)c3)CC2)C(=O)Nc2ccccc21` (centres unmarked) (as salt: hydrochloride) [Example 96, 3-{4-[4-(4-Chloro-3-trifluoromethyl-phenyl)-piperazin-1-yl]-butyl}-3-ethyl-1,3-dihydro-2H-indol-2-one monohydrochloride], the melting point was in the range of 204 to 206 °C. For `CCC1(CCCCN2CCN(c3ccc(OC)cc3)CC2)C(=O)Nc2ccccc21` (centres unmarked) [Example 74, 3-Ethyl-3-{4-[4-(4-methoxyphenyl)-piperazin-1-yl]-butyl}-1,3-dihydro-2H-indol-2-one] the value was 109 to 110 °C. As to `CCC1(CCCCN2CCN(c3cccc(Cl)c3)CC2)C(=O)Nc2cc(F)c(Cl)cc21` (centres unmarked) (as salt: hydrochloride) [Example 89, 5-Chloro-3-{4-[4-(3-chlorophenyl)-piperazin-1-yl]-butyl}-3-ethyl-6-fluoro-1,3-dihydro-2H-indol-2-one monohydrochloride], the melting point fell in the range of 237 to 239 °C.

The compound `CCC1(CCCCN2CCN(c3cc(Cl)cc(Cl)c3)CC2)C(=O)Nc2ccc(F)cc21` (centres unmarked) [Example 114, 3-{4-[4-(3,5-dichlorophenyl)-piperazine-1-yl]-butyl}-3-ethyl-5-fluoro-1,3-dihydro-2H-indol-2-one] had a melting point of 122 to 124 °C.

The compound `CCC1(CCCCN2CCN(c3ccccc3Cl)CC2)C(=O)Nc2ccccc21` (centres unmarked) [Example 81, 3-{4-[4-(2-Chlorophenyl)-piperazin-1-yl]-butyl}-3-ethyl-1,3-dihydro-2H-indol-2-one] registered a melting point of 145 to 148 °C.
